From patent US12544377B2, “Compounds, compositions and methods of treating or preventing acute lung injury” (Yale University, priority 2017, dated 2026)
Entries after “also recorded” stand apart in the source; their conditions may differ.

Columns and labels:
[1] = tested on: LPS-induced lung injury; assay: LPS-induced lung injury in mice; format: in vivo; settings: for difference between HS-DKO and WT control mice in permeability and edema, LPS-induced injury: mice fed diet containing BHA
Description: Mice were anesthetized with ketamine/Xylazine (1 gm/kg and 100 mg/kg) and were allowed to inhaled 50 μl of LPS (1 mg/ml) placed as droplets on nares. Mice postures were maintained upright. Twenty-two hours after the induction of injury, 100 μl of FITC-labeled albumin (10 mg/ml) were injected via retro-orbital vein, and 24 hours after the induction of injury, mice were euthanized by exsanguination. To obtain bronchoalveolar lavage fluid, 1 ml of PBS was instilled into lungs and retrieved a via a tracheal catheter. In some experiments, mice were first fed with antioxidant BHA in food (Harlan Laboratory Services) for 7 days before the induction of lung injury.

[2] = tested on: HCl-induced lung injury; assay: HCl (acid aspiration)-induced lung injury in mice; format: in vivo; settings: for pulmonary permeability, HCl-induced lung injury, treatment after injury: six hours after injury; for HCl-induced acute lung injury / survival of mice: FIG. 15; for lung permeability, HCl-induced lung injury, preventative treatment: 1.5 mg/Kg intra-nasal 0.5 hour before HCl (0.05 M); for survival, HCl-induced lung injury, preventative treatment: 1.5 mg/Kg intra-nasal 0.5 hour before HCl (0.1 M)
Description: Mice were anaesthetized by ketamine/Xylazine ([…] and 100 mg/kg) and were suspended vertically from their incisors on a custom-made mount for orotracheal instillation. A 22 G catheter (Jelco, Smiths Medical) was guided 1.5 cm below the vocal cords, and 2.5 μl/g of 0.05 M HCl was instilled. Two hours after the induction of injury, 100 μl of FITC-labeled albumin (10 mg/ml) was injected via retro-orbital vein. Measurements were made 6 hours after the induction of injury. Control animals received saline instead of HCl in the same manner. In survival experiments, mice received 2.5 μl/g of 0.1 M HCl orotracheally and the observation period was extended up to 30 h.

[3] = tested on: mouse neutrophils; assay: ROS release assay in mouse neutrophils stimulated with fMLP; settings: pretreated 10 min before fMLP (1 μM)
Description: Mice were euthanized in a CO2 chamber according to approved protocol, bone marrow was harvested from long bones of the mice, red blood cells (RBCs) were lysed with ACK buffer (155 mM NH4Cl, 10 mM KHCO3 and 127 μM EDTA), the cells were layered on a discontinuous Percoll gradient composed of 81%, 62% and 45% Percoll layers, and the cells were isolated from the interphase between 81% and 62% Percoll layers. Cells were washed in HBSS and used for various assays.
Neutrophils were suspended in a reaction mixture (0.25% BSA in HBSS with Ca^2+ and Mg^2+, 10 mM Isoluminol, 100 μ/ml HRP), distributed cells in the well of a 96 well plate, and stimulated with fMLP (10 μM). Isoluminol-enhanced chemiluminescence was recorded continuously in a plate reader (Perkin Elmer).

[4] = tested on: human neutrophils; assay: ROS production assay in human neutrophils stimulated with fMLP; settings: fMLP (100 nM), 20 nM pazopanib
Description: One day after lung injury induction, lung permeability was determined. […] Six hours after lung injury induction, lung permeability (FIG. 12D) and histology (FIG. 12E) were examined. […] Data from one experiment are presented as mean±sem (Student t-Test, *p<0.05, n=5). […] Six hours after lung injury induction, lung permeability were examined. […] Data from one experiment are presented as mean±sem (Student t-Test, *p<0.05, n=5).

[5] = tested on: bleomycin-induced lung fibrosis; assay: Bleomycin-induced lung fibrosis in mice (hydroxyproline levels); format: in vivo; settings: 0.05 unit bleomycin once, one week later 60 mg/kg orally for five days
Excerpt: A long detrimental effect of ALI is fibrosis. […] A bleomycin-induced lung fibrosis model was used in this study: Gan, et al., 2012, Nat. Cell Biol. 14:686.

[6] = tested on: p47phox Ser-208 phosphorylation in neutrophils; assay: Western analysis of fMLP-stimulated neutrophils (phospho-Ser-208 p47phox, MAP3K3 protein); settings: for p47phox phosphorylation at Ser-208 in neutrophils: pretreated 10 min before fMLP (1 μM), phospho-specific antibody
Description: One day after lung injury induction, lung permeability (FIG. 5D) and histology (FIG. 5E) were examined. […] The C57Bl mice were treated as above and their survival was analyzed by the Mantel-Cox Log-Rank test.

[7] = 1.5 mg/Kg intra-nasal 1 h after HCl (0.05 M)

With `COc1ccc(O)c(C(C)(C)C)c1` [BHA, butylated hydroxyanisole] the “pazopanib's effect on lung permeability in mice fed BHA” value ([1]; chew containing BHA, 60 mg/Kg/day pazopanib via gavage, LPS) was “abrogates pazopanib's effect on lung permeability”, the “difference between HS-DKO and WT control mice in permeability and edema, LPS-induced injury” value [1] was “abrogates the difference” and the “difference between HS-DKO and WT control mice in permeability and edema, LPS-induced injury” value ([1]; listed as butylated hydroxyanisole (BHA)) was “dissipated”.
With `Cc1ccc(NC(=O)c2ccc(CN3CCN(C)CC3)cc2)cc1Nc1nccc(-c2cccnc2)n1` [imatinib, 4-[(4-methylpiperazin-1-yl)methyl]-N-(4-methyl-3-{[4-(pyridin-3-yl)pyrimidin-2-yl]amino}phenyl)benzamide] the “pulmonary permeability, HCl-induced lung injury, treatment after injury” value (shortened to “pulmonary permeability … after injury”) [2, 7] was “ineffective in reducing lung permeability; also recorded: does not attenuate HCl-induced lung injury” and the “pulmonary permeability … after injury” value ([2]; 1.5 mg/Kg intra-nasal 1 h after HCl (0.05 M), listed as Imatinib) was “trend of aggravation of the injury”.
“Avastin: Avastin, a VEGF inhibitor; described in b209 as a neutralizing anti-VEGFR antibody (FIG. 15)” was tested, and the “HCl-induced acute lung injury / survival of mice” value [2] was “limited effects” and the “HCl-induced acute lung injury / survival of mice” value ([2]; listed as neutralizing anti-VEGFR antibody) was “no effect in survival”.
`Cc1ccc(Nc2nccc(N(C)c3ccc4c(C)n(C)nc4c3)n2)cc1S(N)(=O)=O` [pazopanib, 5-((4-((2,3-dimethyl-2H-indazol-6-yl)(methyl)amino)pyrimidin-2-yl)amino)-2-methylbenzenesulfonamide] was tested, and the “ROS production from WT mouse neutrophils” value [3] was “led to increases in the ROS production; also recorded: increases ROS release from neutrophils”, the “ROS production from human neutrophils” value [4] was “increases ROS production from human neutrophils” and the “lung fibrosis (levels of hydroxyproline)” value [5] was “inhibits bleomycin-induced lung fibrosis”. For the same compound, the “lung fibrosis (levels of hydroxyproline)” value ([5]; listed as Pazopanib) was “inhibit lung fibrosis”, the “lung permeability, HCl-induced lung injury, preventative treatment” value [2] was “pretreatment attenuates HCl-induced lung injury” and the “lung permeability, HCl-induced lung injury, preventative treatment” value ([2]; listed as Pazopanib) was “effective in reduction of permeability”. For the same compound, the “survival, HCl-induced lung injury, preventative treatment” value [2] was “pretreatment reduces mortality”, the “survival, HCl-induced lung injury, preventative treatment” value ([2]; listed as Pazopanib) was “extending survival” and the “alveolar wall thickening and edema (histology), HCl-induced lung injury” value [2, 7] was “decreased”. The “pulmonary permeability … after injury” value [2, 7] was “decreased pulmonary permeability; also recorded: attenuates HCl-induced lung injury”, the “survival, HCl-induced lung injury, treatment after injury” value ([2]; 2.5 mg/Kg intra-nasal 1 h after HCl (0.1 M)) was “significantly extended the survival; also recorded: pazopanib treatment reduces mortality” and the “lung injury (permeability, survival) in mice lacking p47phox” value ([2]; p47phox-deficient mice, FIGS. 16C & 16E) was “showed no effects; also recorded: abrogated the therapeutic effect of pazopanib”. For the same compound, the “mortality, LPS-induced lung injury, therapeutic modality” value ([1]; 1.5 mg/Kg intra-nasal 24 h after LPS) was “reduced mortality; also recorded: therapeutic treatment of pazopanib reduces mortality”, the “mortality, LPS-induced lung injury, prophylactic modality” value ([1]; 60 mg/Kg/day via gavage two days before injury) was “reduces mortality” and the “lung injury in mice lacking MEKK2/3 (HS-DKO), LPS” value ([1]; HS-DKO mice, 60 mg/Kg/day via gavage, FIGS. 12C-12D) was “no effects on lung injury”. The “AKT phosphorylation in LPS-injured HS-DKO lungs” value ([1]; HS-DKO mice, FIG. 13E) was “little effect on AKT phosphorylation”, the “alveolar wall thickening and edema (histology), LPS-induced lung injury” value ([1]; WT C57Bl mice, 60 mg/Kg/day via gavage from two days before LPS) was “reduced” and the “pulmonary permeability, LPS-induced lung injury” value ([1]; WT C57Bl mice, 60 mg/Kg/day via gavage from two days before LPS, one day after injury, 60 mg/kg/day) was “reduced pulmonary permeability; also recorded: attenuates LPS-induced lung injury”. For the same compound, the “AKT phosphorylation in LPS-injured lungs” value ([1]; WT mice, FIG. 13D) was “increased AKT phosphorylation”, the “increase in MAP3K3 protein content induced by fMLP” value ([6]; neutrophils, fMLP) was “abrogated increase in MAP3K3 protein content” and the “p47phox phosphorylation at Ser-208 in neutrophils” value [6] was “inhibits phosphorylation of Ser-208”. The “p47phox phosphorylation at Ser-208 in neutrophils” value ([6]; listed as Pazopanib) was “inhibit”.
`NC1(c2ccc(-c3nc4ccn5c(=O)[nH]nc5c4cc3-c3ccccc3)cc2)CCC1` [MK-2206, 8-[4-(1-Aminocyclobutyl)phenyl]-9-phenyl-2H-[1,2,4]triazolo[3,4-f][1,6]naphthyridin-3-one] was tested, and the “effect of pazopanib on permeability in LPS-injured lungs in presence of AKT inhibitor” value ([1]; MK-2206 10 mg/Kg with or without 60 mg/Kg/day pazopanib via gavage) was “abrogates the effect of pazopanib on permeability”.
